Results published in patent US20070128217A1 (priority 2003, published 2007).

Tests used:
[1] = test system: antibodies in sera from SARS patients (sera 1a, 1b, 2, 6, 37, 62, London, SARS-yellow, SARS-green); type: binding, human; set-up: Binding of serum 6 to linear peptides of protein X1 of SARS-CoV Urbani / Binding of serum 37 to linear peptides of protein X1 of SARS-CoV Urbani / Binding of serum 6 to looped/cyclic peptide (PEPSCAN-ELISA) / Binding of serum 37 to looped/cyclic peptide (PEPSCAN-ELISA) / Binding of serum 37 to looped/cyclic peptides of protein X1 of SARS-CoV Urbani / Binding of serum 6 to linear peptides of protein X2 / Binding of serum 37 to linear peptides of protein X2 / Binding of serum 37 to looped/cyclic peptides of protein X2 of SARS-CoV Urbani / Binding of serum 6 to linear peptides of protein M of SARS-CoV Urbani / Binding of serum 37 to linear peptides of protein M of SARS-CoV Urbani / Binding of serum 6 to looped/cyclic peptides of protein M of SARS-CoV Urbani / Binding of serum 37 to looped/cyclic peptides of protein M of SARS-CoV Urbani / Binding of serum 6 to linear peptides of protein X3 of SARS-CoV Urbani / Binding of serum 37 to linear peptides of protein X3 of SARS-CoV Urbani / Binding of serum 37 to looped/cyclic peptides of protein X3 of SARS-CoV Urbani / Binding of serum 6 to linear peptides of protein X4 of SARS-CoV Urbani / Binding of serum 37 to linear peptides of protein X4 of SARS-CoV Urbani / Binding of serum 37 to looped/cyclic peptides of protein X4 of SARS-CoV Urbani / Binding of serum 6 to linear peptides of protein X5 of SARS-CoV Urbani / Binding of serum 37 to linear peptides of protein X5 of SARS-CoV Urbani / Binding of serum 37 to looped/cyclic peptides of protein X5 of SARS-CoV Urbani / Binding of serum 6 to linear peptides of protein N of SARS-CoV Urbani / Binding of serum 37 to linear peptides of protein N of SARS-CoV Urbani / Binding of serum 6 to linear peptide (PEPSCAN-ELISA) / Binding of serum 1a to looped/cyclic peptides of protein N of SARS-CoV Urbani / Binding of serum 1b to looped/cyclic peptides of protein N of SARS-CoV Urbani / Binding of serum 2 to looped/cyclic peptides of protein N of SARS-CoV Urbani / Binding of serum 6 to looped/cyclic peptides of protein N of SARS-CoV Urbani / Binding of serum 37 to looped/cyclic peptides of protein N of SARS-CoV Urbani / Binding of serum 62 to looped/cyclic peptides of protein N of SARS-CoV Urbani / Binding of serum London to looped/cyclic peptides of protein N of SARS-CoV Urbani / Binding of serum SARS-green to looped/cyclic peptides of protein N of SARS-CoV Urbani: unit not given here
[2] = test system: control sera (pooled serum of ten healthy LUMC hospital workers; commercial negative donor pooled serum from the Dutch bloodbank); type: binding, human; set-up: Binding of Control serum LUMC to linear peptides / Binding of Control serum Blood-bank to linear peptides / Binding of Control serum LUMC to looped peptides / Binding of Control Serum Blood-Bank to Looped peptides / Binding of Control serum LUMC to linear peptides of the protein M of SARS-CoV Urbani / Binding of Control serum Blood-bank to linear peptides of the protein M of SARS-CoV Urbani / Binding of Control serum LUMC to looped peptides of the protein M of SARS-CoV Urbani / Binding of Control Serum Blood-Bank to Looped peptides of the protein M of SARS-CoV Urbani: unit not given here
[3] = test system: rabbit serum obtained by immunizing a rabbit with the SARS-CoV strain Frankfurt 1; type: binding; set-up: Binding of a rabbit serum to linear peptides / Binding of a rabbit serum to looped peptides / Rabbit serum linear peptides / Rabbit serum looped peptides / Binding of a rabbit serum to linear peptides of protein N of SARS-CoV Urbani (Rabbit serum linear peptides) / Binding of a rabbit serum to looped/cyclic peptides of protein N of SARS-CoV Urbani (Rabbit serum looped peptides): unit not given here
[4] = test system: recombinant human anti-SARS-CoV antibody 03-018; type: binding; set-up: Binding of antibody 03-018 to linear peptides of the N protein of SARS-CoV Urbani / Binding of antibody 03-018 to looped/cyclic peptides of the N protein of SARS-CoV Urbani: unit not given here

Sequence | Binding of serum 1a to linear peptides of protein N of SARS-CoV Urbani [1] | Binding of serum 1a to looped/cyclic peptides of protein N of SARS-CoV Urbani [1] | Binding of serum 1b to linear peptides of protein N of SARS-CoV Urbani [1] | Binding of serum 1b to looped/cyclic peptides of protein N of SARS-CoV Urbani [1] | Binding of serum 2 to linear peptides of protein N of SARS-CoV Urbani [1] | Binding of serum 2 to looped/cyclic peptides of protein N of SARS-CoV Urbani [1] | Binding of serum 6 to linear peptides of protein N of SARS-CoV Urbani [1] | Binding of serum 6 to looped/cyclic peptides of protein N of SARS-CoV Urbani [1] | Binding of serum 37 to linear peptides of protein N of SARS-CoV Urbani [1] | Binding of serum 37 to looped/cyclic peptides of protein N of SARS-CoV Urbani [1] | Binding of serum 62 to linear peptides of protein N of SARS-CoV Urbani [1] | Binding of serum 62 to looped/cyclic peptides of protein N of SARS-CoV Urbani [1] | Binding of serum London to linear peptides of protein N of SARS-CoV Urbani [1] | Binding of serum London to looped/cyclic peptides of protein N of SARS-CoV Urbani [1] | Binding of serum SARS-green to linear peptides of protein N of SARS-CoV Urbani [1] | Binding of serum SARS-green to looped/cyclic peptides of protein N of SARS-CoV Urbani [1] | Binding of serum SARS-yellow to linear peptides of protein N of SARS-CoV Urbani [1] | Binding of serum SARS-yellow to looped/cyclic peptides of protein N of SARS-CoV Urbani [1] | Binding of Control Serum Blood-Bank to Looped peptides [2] | Binding of Control serum Blood-bank to linear peptides [2] | further results
ASWFTALTQHGKEEL | 0.2 | 0.2 | 0.1 | 0.1 | 0.1 | 0.2 | 0.1 | 0.1 | 0.9 | 0.4 | 0.6 | 0.3 | 0.5 | 0.3 | 0.4 | 0.2 | 0.4 | 0.1 | 0.5 | 0.7 | Binding of Control serum LUMC to linear peptides [2]: 0.5; Binding of Control serum LUMC to looped peptides [2]: 0.4; Binding of a rabbit serum to linear peptides of protein N of SARS-CoV Urbani (Rabbit serum linear peptides) [3]: 0.1; Binding of a rabbit serum to looped/cyclic peptides of protein N of SARS-CoV Urbani (Rabbit serum looped peptides) [3]: 0.1; Binding of antibody 03-018 to linear peptides of the N protein of SARS-CoV Urbani [4]: 0.1; Binding of antibody 03-018 to looped/cyclic peptides of the N protein of SARS-CoV Urbani [4]: 0.2
ATEGALNTPKDHIGT | 0.2 | 0.3 | 0.1 | 0.2 | 0.3 | 0.4 | 0.1 | 0.2 | 0.7 | 0.4 | 0.7 | 0.3 | 0.5 | 0.3 | 0.4 | 0.3 | 0.6 | 0.2 | 0.5 | 0.8 | Binding of Control serum LUMC to linear peptides [2]: 0.7; Binding of Control serum LUMC to looped peptides [2]: 0.5; Binding of a rabbit serum to linear peptides of protein N of SARS-CoV Urbani (Rabbit serum linear peptides) [3]: 0.1; Binding of a rabbit serum to looped/cyclic peptides of protein N of SARS-CoV Urbani (Rabbit serum looped peptides) [3]: 0.1; Binding of antibody 03-018 to linear peptides of the N protein of SARS-CoV Urbani [4]: 0.1; Binding of antibody 03-018 to looped/cyclic peptides of the N protein of SARS-CoV Urbani [4]: 0.2
ATRRVRGGDGKMKEL | 0.3 | 0.2 | 0.1 | 0.1 | 0.3 | 0.2 | 0.3 | 0.1 | 0.8 | 0.4 | 0.7 | 0.3 | 0.5 | 0.3 | 0.3 | 0.1 | 0.6 | 0.4 | 0.5 | 0.7 | Binding of Control serum LUMC to linear peptides [2]: 0.7; Binding of Control serum LUMC to looped peptides [2]: 0.5; Binding of a rabbit serum to linear peptides of protein N of SARS-CoV Urbani (Rabbit serum linear peptides) [3]: 0.3; Binding of a rabbit serum to looped/cyclic peptides of protein N of SARS-CoV Urbani (Rabbit serum looped peptides) [3]: 0.3; Binding of antibody 03-018 to linear peptides of the N protein of SARS-CoV Urbani [4]: 0.1; Binding of antibody 03-018 to looped/cyclic peptides of the N protein of SARS-CoV Urbani [4]: 0.2
